# Laboratory results taken from patent publication US20100254902A1, “STABILIZATION OF RADIOPHARMACEUTICALS” (priority 2008, published 2010).
# Experiment: Radiochemical purity (RCP) of [^18F]FDG composition by TLC, stability testing
# Method: Radiochemical purity of [^18F]FDG composition samples was determined at end of synthesis (EOS) and at Expiry i.e. after 10 hours storage at 22° C.±3° C. to determine stability of the composition.
# To a series of vials was added an amount of stabilizer dissolved in Buffer.
# At EOS (within 2 hours), a 100-fold dilution of the test solution was prepared by addition of a 10 μl sample to a 990 μl volume of water for injection. After mixing, a 2 μl sample was applied to a TLC strip.
# At 10 hours after synthesis, a 10-fold dilution was made by addition of a 20 μl sample to a 180 μl volume of water for injection. After mixing, a 3 μl sample was applied to a TLC strip.
# Within 1 to 3 hours after manufacture, radiochemical purity (RCP) was determined by TLC. The vials were stored at 22° C.±3° C. and at 10 hours after synthesis, RCP was again determined by TLC.
"RCP at EOS+10 h, difference GA versus ethanol (Example 5, vial 6 versus vial 5) [%]","stabiliser quality compared with ethanol (conclusion) (Example 5, vial 6 versus vial 5, approximately 2 mg/ml stabilizer)",Structure (SMILES),"effect of increasing amounts of gentisic acid on stabilisation of [^18F]FDG (Examples 2-4, batches <50 GBq at EOS, ranges 0.1-0.5, 0.5-1 and 1-2 mg/ml)","stabilising effect on [^18F]FDG composition (conclusion) (Example 1, additives 2.5-20 mg/ml acetone or ethanol, 3-6 mg/ml gentisic acid)"
1,better stabiliser than ethanol,"O=C(O)c1cc(O)ccc1O [gentisic acid, 2,5-dihydroxybenzoic acid]",the higher amount was found to be more effective,–
–,–,"CC(C)=O [Acetone, reference compound]",–,slight stabilising effect
